Test results published in patent US10457677B2 (priority 2015, dated 2019).
Read-outs that look alike come from different tables or passages of the source.

How the values were obtained:
[1] = molecular target: mTOR (human) (Homo sapiens (Human), UniProt P42345); assay: mTOR (human) kinase assay, [γ-33P-ATP] filter assay; assay type: biochemical
Procedure, shortened: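 Radiometric filter assay: enzyme in 50 mM HEPES pH 7.5, 1 mM EGTA, 0.01% Tween 20, 3 mM MnCl2, 2 mg/ml substrate with [γ-33P-ATP], started with MgATP. Incubated 40 min at room temperature, stopped with 3% phosphoric acid; incorporation measured on P30 filtermat by scintillation counting.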

[2] = molecular target: PI3K (p120γ) (human) (Homo sapiens (Human), UniProt P48736); assay: PI3K (p120γ) (human), non-radioactive assay (HTRF); assay type: biochemical; details: read-out: IC50 (PI3Kgamma)
Chain of PI3K (p120γ) (human) (P48736 whole entry, the tested form may be a part): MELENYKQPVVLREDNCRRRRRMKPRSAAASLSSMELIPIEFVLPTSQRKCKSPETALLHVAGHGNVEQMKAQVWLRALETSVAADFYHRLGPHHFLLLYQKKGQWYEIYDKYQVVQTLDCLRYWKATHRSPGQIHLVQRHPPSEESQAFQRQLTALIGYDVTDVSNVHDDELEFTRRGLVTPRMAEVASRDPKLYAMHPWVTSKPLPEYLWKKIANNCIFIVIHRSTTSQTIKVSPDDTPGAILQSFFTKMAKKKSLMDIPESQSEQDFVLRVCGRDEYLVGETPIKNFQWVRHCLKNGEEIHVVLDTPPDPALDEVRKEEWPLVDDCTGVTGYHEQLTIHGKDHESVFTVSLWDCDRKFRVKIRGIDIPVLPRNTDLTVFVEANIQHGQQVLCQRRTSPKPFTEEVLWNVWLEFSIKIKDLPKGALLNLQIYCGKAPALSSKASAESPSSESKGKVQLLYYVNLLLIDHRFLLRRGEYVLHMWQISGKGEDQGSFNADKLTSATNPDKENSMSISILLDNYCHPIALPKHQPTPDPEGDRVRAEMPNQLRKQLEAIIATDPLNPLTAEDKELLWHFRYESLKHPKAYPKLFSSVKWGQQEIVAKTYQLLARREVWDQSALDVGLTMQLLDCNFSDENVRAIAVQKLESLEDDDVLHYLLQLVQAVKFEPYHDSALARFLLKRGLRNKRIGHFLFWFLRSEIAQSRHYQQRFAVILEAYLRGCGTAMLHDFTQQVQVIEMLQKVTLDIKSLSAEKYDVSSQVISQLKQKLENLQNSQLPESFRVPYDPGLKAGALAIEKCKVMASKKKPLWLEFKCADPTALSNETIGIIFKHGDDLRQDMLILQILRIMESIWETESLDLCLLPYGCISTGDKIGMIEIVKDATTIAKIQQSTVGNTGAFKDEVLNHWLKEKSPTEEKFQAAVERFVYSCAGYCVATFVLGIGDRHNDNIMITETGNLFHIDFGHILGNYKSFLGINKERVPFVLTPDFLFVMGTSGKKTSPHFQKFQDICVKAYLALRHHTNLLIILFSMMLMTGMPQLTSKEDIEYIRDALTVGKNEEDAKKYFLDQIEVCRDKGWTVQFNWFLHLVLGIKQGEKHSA
Procedure, shortened: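 Enzyme was run with 10 μM phosphatidylinositol 4,5-bisphosphate, starting the reaction with MgATP at an unspecified level, for 30 min at room temperature. The stop used EDTA plus biotinylated PIP3, and detection used Eu-anti-GST, GST-GRP1 PH domain and streptavidin-APC. Signal was taken as HTRF = 10000×(Em665nm/Em620nm).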

[3] = molecular target: PI3K p110δ/p85α (human) (Homo sapiens (Human), UniProt O00329); assay: PI3K p110δ/p85α (human), non-radioactive assay (HTRF); assay type: biochemical; details: read-out: IC50 (PI3Kdelta)
Chain of PI3K p110δ/p85α (human) (O00329 whole entry): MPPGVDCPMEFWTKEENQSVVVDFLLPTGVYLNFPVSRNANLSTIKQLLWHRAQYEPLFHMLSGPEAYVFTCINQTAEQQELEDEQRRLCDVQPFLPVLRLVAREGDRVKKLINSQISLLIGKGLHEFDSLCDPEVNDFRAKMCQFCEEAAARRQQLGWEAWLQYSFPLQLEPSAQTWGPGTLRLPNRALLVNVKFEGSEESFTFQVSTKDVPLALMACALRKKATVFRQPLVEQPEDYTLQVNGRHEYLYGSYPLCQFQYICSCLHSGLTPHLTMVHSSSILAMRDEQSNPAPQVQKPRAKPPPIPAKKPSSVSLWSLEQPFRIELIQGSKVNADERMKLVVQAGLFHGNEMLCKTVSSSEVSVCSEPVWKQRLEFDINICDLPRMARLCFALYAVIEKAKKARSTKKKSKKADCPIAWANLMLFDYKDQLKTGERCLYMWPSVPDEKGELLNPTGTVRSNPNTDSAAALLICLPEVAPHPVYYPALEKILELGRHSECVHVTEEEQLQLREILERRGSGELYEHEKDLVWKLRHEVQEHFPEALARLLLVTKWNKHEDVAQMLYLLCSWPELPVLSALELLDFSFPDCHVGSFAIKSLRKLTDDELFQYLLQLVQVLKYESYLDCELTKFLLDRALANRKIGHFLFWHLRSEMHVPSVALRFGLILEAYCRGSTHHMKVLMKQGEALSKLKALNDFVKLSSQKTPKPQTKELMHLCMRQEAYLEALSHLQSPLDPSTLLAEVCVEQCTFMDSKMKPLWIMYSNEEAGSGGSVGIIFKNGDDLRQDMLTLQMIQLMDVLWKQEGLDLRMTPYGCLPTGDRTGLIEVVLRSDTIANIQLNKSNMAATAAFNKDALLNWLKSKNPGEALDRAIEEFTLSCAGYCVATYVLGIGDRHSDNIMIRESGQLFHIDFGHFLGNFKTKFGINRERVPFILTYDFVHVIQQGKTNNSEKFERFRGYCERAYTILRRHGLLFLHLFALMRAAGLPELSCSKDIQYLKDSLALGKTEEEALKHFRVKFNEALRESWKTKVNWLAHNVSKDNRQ
Chain of PI3K p110δ/p85α (human) (P27986 whole entry partner): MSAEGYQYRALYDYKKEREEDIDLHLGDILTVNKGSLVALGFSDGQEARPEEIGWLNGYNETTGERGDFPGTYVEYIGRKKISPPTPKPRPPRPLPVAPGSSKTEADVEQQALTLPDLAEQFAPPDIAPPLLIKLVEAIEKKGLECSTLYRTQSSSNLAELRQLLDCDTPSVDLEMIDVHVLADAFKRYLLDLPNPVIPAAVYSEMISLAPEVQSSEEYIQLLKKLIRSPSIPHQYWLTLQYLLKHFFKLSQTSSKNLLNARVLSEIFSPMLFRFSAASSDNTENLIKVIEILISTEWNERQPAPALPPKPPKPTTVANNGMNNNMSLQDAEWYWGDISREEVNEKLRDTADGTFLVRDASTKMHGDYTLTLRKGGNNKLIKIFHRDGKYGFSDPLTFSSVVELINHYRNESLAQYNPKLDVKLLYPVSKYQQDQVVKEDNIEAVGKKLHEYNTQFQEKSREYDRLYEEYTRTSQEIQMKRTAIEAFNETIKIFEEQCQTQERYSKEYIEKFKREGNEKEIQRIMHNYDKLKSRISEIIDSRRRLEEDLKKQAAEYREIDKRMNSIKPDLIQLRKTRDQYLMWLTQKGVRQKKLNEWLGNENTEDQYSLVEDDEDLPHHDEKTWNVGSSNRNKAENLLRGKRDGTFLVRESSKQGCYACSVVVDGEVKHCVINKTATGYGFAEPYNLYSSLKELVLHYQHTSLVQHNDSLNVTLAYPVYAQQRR

[4] = molecular target: PI3K p110β/p85α (human) (Homo sapiens (Human), UniProt P42338); assay: PI3K p110β/p85α (human), non-radioactive assay (HTRF); assay type: biochemical
Chain of PI3K p110β/p85α (human) (P42338 whole entry, the tested form may be a part): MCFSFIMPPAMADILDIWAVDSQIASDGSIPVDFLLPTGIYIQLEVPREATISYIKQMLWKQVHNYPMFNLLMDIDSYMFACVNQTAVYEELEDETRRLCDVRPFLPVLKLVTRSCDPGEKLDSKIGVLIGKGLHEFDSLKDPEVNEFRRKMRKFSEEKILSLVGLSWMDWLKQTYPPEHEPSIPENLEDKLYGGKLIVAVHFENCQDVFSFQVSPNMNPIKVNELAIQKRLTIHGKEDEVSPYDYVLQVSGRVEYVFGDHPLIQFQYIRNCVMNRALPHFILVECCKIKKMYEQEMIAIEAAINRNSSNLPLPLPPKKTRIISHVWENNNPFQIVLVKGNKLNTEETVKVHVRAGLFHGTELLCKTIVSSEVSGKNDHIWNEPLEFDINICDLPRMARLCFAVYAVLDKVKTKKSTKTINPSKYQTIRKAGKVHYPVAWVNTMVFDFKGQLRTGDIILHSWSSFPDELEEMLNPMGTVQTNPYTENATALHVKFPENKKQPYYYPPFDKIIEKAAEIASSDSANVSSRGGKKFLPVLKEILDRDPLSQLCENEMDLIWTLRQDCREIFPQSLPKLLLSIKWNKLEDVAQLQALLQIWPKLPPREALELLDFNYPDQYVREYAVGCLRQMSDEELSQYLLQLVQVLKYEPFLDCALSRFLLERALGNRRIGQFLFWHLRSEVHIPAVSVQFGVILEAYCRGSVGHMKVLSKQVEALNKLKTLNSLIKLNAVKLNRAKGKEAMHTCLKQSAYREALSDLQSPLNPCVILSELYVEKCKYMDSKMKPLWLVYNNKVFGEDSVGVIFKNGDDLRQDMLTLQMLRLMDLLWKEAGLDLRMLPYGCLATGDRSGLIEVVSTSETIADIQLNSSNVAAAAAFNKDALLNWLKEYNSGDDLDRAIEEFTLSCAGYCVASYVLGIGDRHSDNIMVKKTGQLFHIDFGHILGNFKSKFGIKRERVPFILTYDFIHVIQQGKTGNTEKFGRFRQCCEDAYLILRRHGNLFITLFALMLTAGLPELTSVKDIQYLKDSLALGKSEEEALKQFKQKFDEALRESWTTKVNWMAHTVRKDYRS
Chain of PI3K p110β/p85α (human) (P27986 whole entry partner, the tested form may be a part): as the sequence (P27986 whole entry partner) above
Procedure, shortened: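 Human p110β/p85α incubated with 10 μM phosphatidylinositol 4,5-bisphosphate and MgATP for 30 min at room temperature, stopped with EDTA plus biotinylated PIP3. HTRF detection used a Eu-anti-GST antibody, GST-GRP1 PH domain and streptavidin-APC, with signal taken as 10000×(Em665nm/Em620nm).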

[5] = test system: phosphorylation of CHK2 (phospho-Thr68) in HCT116 cells; assay: Cellular pCHK2 assay: bleomycin-induced phosphorylation of CHK2 (phospho-Thr68), immunofluorescence high-content analysis; assay type: cell-based, human; details: Homo sapiens, HCT-116, 4 h, read-out: IC50 (pCHK2)
Procedure, shortened: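 HCT116 cells in DMEM with 10% FCS, incubated overnight at 37° C, then given compounds (1 nM to 30 μM, 0.5% DMSO) together with 10 μM bleomycin. Phospho-Thr68 CHK2 immunostained and imaged by high-content imager; nuclei with pCHK2 above background counted, cell count from propidium iodide DNA stain.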

[6] = molecular target: purified human recombinant ATM (ataxia telangiectasia mutated), full length (Homo sapiens (Human), UniProt Q13315); assay: ATM kinase assay - determination of ATM inhibition (IC50 ATM), TR-FRET; assay type: biochemical
Procedure, shortened: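 Full-length enzyme, expressed in a mammalian cell line, pre-incubated 15 min with inhibitor in 25 mM HEPES pH 8.0, 10 mM Mg(CH3COO)2, 1 mM MnCl2, 0,1% BSA, 0,01% Brij 35, 5 mM DTT. Full-length cmyc-p53 (Sf21-expressed) and ATP then added, 30-35 min at 22° C. EDTA stop; p53 S15 phosphorylation read by TR-FRET antibodies.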

[7] = molecular target: PI3K p110α/p85α (human) (Homo sapiens (Human), UniProt P42336); assay: PI3K p110α/p85α (human), non-radioactive assay (HTRF); assay type: biochemical; details: read-out: IC50 (PI3Kalpha)
Chain of PI3K p110α/p85α (human) (P42336 whole entry): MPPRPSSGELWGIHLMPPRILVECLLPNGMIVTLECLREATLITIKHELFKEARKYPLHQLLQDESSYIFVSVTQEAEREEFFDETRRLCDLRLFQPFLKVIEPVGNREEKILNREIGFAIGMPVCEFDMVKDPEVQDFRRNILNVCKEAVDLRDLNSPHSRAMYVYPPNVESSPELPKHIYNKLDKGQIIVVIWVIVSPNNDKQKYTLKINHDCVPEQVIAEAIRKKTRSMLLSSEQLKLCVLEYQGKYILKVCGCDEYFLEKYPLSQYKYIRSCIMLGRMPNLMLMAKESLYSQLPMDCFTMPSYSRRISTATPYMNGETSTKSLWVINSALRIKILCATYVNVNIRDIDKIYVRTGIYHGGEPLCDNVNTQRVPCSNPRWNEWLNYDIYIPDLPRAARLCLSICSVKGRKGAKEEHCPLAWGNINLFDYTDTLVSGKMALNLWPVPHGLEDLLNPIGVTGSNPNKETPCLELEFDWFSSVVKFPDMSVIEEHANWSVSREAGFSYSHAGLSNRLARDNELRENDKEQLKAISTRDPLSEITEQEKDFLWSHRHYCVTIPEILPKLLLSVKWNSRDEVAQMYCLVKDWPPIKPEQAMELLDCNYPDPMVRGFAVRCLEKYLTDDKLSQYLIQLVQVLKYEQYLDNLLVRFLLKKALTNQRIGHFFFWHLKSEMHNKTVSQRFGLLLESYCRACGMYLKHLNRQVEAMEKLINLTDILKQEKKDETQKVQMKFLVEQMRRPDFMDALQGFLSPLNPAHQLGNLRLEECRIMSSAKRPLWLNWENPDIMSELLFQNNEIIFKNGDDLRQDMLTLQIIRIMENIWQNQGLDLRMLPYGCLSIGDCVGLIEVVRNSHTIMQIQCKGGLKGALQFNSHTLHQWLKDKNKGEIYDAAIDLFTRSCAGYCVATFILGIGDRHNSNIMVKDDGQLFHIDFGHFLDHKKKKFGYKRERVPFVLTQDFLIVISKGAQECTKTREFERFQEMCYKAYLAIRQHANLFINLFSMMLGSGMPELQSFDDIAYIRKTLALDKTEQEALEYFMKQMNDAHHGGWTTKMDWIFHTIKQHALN
Chain of PI3K p110α/p85α (human) (P27986 whole entry partner): as the sequence (P27986 whole entry partner) above

Row | Compound | IC50 [1] [µM] | IC50 [2] [µM] | IC50 [3] [µM] | IC50 ([4]; read-out: IC50 (PI3Kbeta)) [µM] | IC50 [5] [µM] | IC50 [6] [µM] | IC50 ([6]; 10 μM ATP, substrate p53) [µM] | IC50 [7] [µM] | IC50 [4] [µM]
1 | COc1cc2ncc3c(c2cc1-c1cnn(C)c1)n(-c1c(F)cncc1C#N)c(=O)n3C [Compound Example 44, 5-Fluoro-4-[7-methoxy-3-methyl-8-(1-methyl-1H-pyrazol-4-yl)-2-oxo-2,3-dihydroimidazo[4,5-c]-quinolin-1-yl]nicotinonitrile] | > 30 | > 30 | > 30 | > 30 | 0.2 to 1 | < 0.01 | < 0.01 | > 30 | 
2 | COc1cc2ncc3c(c2cc1-c1cnn(C)c1)n(-c1ccnc(C#N)c1)c(=O)n3C [Compound Example 45, 4-[7-Methoxy-3-methyl-8-(1-methyl-1H-pyrazol-4-yl)-2-oxo-2,3-dihydroimidazo-[4,5-c]quinolin-1-yl]pyridine-2-carbonitrile] | > 30 | > 30 | > 30 | > 30 | 0.2 to 1 | < 0.05 | < 0.05 | > 30 | 
3 | COc1cc2ncc3c(c2cc1-c1cnn(C)c1)n(-c1ccncc1C#N)c(=O)n3C [Compound Example 46, 4-[7-Methoxy-3-methyl-8-(1-methyl-1H-pyrazol-4-yl)-2-oxo-2,3-dihydroimidazo-[4,5-c]quinolin-1-yl]-nicotinonitrile] | > 30 | > 30 | > 30 | > 30 | 0.2 to 1 | < 0.05 | < 0.05 | > 30 | 
4 | COc1cc2ncc3c(c2cc1-c1cnn(C)c1)n(-c1nccs1)c(=O)n3C [Compound Example 47, 7-Methoxy-3-methyl-8-(1-methyl-1H-pyrazol-4-yl)-1-thiazol-2-yl-1,3-dihydro-imidazo[4,5-c]quinolin-2-one] | > 30 | > 30 | > 30 | > 30 | 0.2 to 1 | < 0.01 | < 0.01 | > 30 | 
5 | COc1cc2ncc3c(c2cc1-c1cnn(C)c1)n(-c1ccnn1C)c(=O)n3C [Compound Example 49, 7-Methoxy-3-methyl-1-(2-methyl-2H-pyrazol-3-yl)-8-(1-methyl-1H-pyrazol-4-yl)-1,3-dihydroimidazo[4,5-c]-quinolin-2-one] | > 30 | > 30 | > 30 | > 30 | 0.2 to 1 | < 0.01 | < 0.01 | > 30 | 
6 | COc1cc2ncc3c(c2cc1-c1cn(C)nn1)n(-c1ncccc1F)c(=O)n3C [Compound Example 51, 1-(3-Fluoropyridin-2-yl)-7-methoxy-3-methyl-8-(1-methyl-1H-1,2,3-triazol-4-yl)-1,3-dihydroimidazo-[4,5-c]quinolin-2-one] | > 30 | > 30 | > 30 | > 30 | 0.2 to 1 | < 0.01 | < 0.01 | > 30 | 
7 | COc1cc2ncc3c(c2cc1-c1cnn(C)c1)n(-c1cn[nH]c1)c(=O)n3C [Compound Example 53, 7-Methoxy-3-methyl-8-(1-methyl-1H-pyrazol-4-yl)-1-(1H-pyrazol-4-yl)-1,3-dihydroimidazo[4,5-c]-quinolin-2-one] | > 30 | > 30 | > 30 | > 30 | 0.2 to 1 | < 0.01 | < 0.01 | > 30 | 
8 | COc1cc2ncc3c(c2cc1-c1cnn(C)c1)n(-c1cnn(C2CCOCC2)c1)c(=O)n3C [Compound Example 55, 7-Methoxy-3-methyl-8-(1-methyl-1H-pyrazol-4-yl)-1-[1-(tetrahydropyran-4-yl)-1H-pyrazol-4-yl]-1,3-dihydroimidazo[4,5-c]-quinolin-2-one] | > 30 | > 30 | > 30 | > 30 | 0.2 to 1 | < 0.01 | < 0.01 | > 30 | 
9 | COc1cc2ncc3c(c2cc1-c1cnn(C)c1)n(-c1cncnc1)c(=O)n3C [Compound Example 57, 7-Methoxy-3-methyl-8-(1-methyl-1H-pyrazol-4-yl)-1-pyrimidin-5-yl-1,3-dihydro-imidazo[4,5-c]quinolin-2-one] | > 30 | > 30 | > 30 | > 30 | 0.2 to 1 | < 0.05 | < 0.05 | > 30 | 
10 | COc1cc2ncc3c(c2cc1-c1cn[nH]c1)n(-c1cn(C)nc1C)c(=O)n3C [Example 3] | > 5 | > 30 | > 30 |  | < 0.2 | < 0.001 | < 0.001 | > 30 | > 30
11 | COc1cc2ncc3c(c2cc1-c1cn[nH]c1)n(-c1ncc(F)cc1F)c(=O)n3C [Example 6] | > 30 | > 30 | > 30 |  | < 0.2 | < 0.001 | < 0.001 | > 30 | > 30
12 | COc1cc2ncc3c(c2cc1-c1cnn(C)c1)n(-c1ccncc1)c(=O)n3C [compound 58, 7-Methoxy-3-methyl-8-(1-methyl-1H-pyrazol-4-yl)-1-pyridin-4-yl-1,3-dihydro-imidazo[4,5-c]quinolin-2-one] | > 30 | > 30 | > 30 | > 30 | 0.2 to 1 | < 0.01 | < 0.01 | > 30 | 
13 | COc1cc2ncc3c(c2cc1-c1cnn(C)c1)n(-c1cn(C)cn1)c(=O)n3C [compound 59, 7-Methoxy-3-methyl-1-(1-methyl-1H-imidazol-4-yl)-8-(1-methyl-1H-pyrazol-4-yl)-1,3-dihydroimidazo[4,5-c] quinolin-2-one] | > 30 | > 30 | > 30 | > 30 | 1 to 2 | < 0.01 | < 0.01 | > 30 | 
14 | COc1cc2ncc3c(c2cc1-c1cnn(C)c1)n(-c1ccncc1Cl)c(=O)n3C [compound 60, 1-(3-Chloropyridin-4-yl)-7-methoxy-3-methyl-8-(1-methyl-1H-pyrazol-4-yl)-1,3-dihydroimidazo[4,5-c] quinolin-2-one] | > 30 | > 30 | > 30 | > 30 | 1 to 2 | < 0.01 | < 0.01 | > 30 | 
15 | CCn1cc(-c2cc3c(cc2OC)ncc2c3n(-c3ccncc3)c(=O)n2C)cn1 [compound 62, 8-(1-Ethyl-1H-pyrazol-4-yl)-7-methoxy-3-methyl-1-pyridin-4-yl-1,3-dihydro-imidazo[4,5-c]quinolin-2-one] | > 30 | > 30 | > 30 | > 30 | 1 to 2 | < 0.01 | < 0.01 | > 30 | 
